Assay results published in publication PMC5469273, “Discovery of Novel Small-Molecule Inhibitors of LIM Domain Kinase for Inhibiting HIV-1” (Journal of Virology, 2017).

Legend:
EPHA3 = EPHA3 (Homo sapiens, UniProt P29320); assay: Kinase profiling (Reaction Biology): EPHA3
[1] = system: HIV DNA-transfected HEK293 cells; assay type: cell-based, HIV-1; settings: different concentrations, 48 h
HSV-1 = HSV-1 plaque assay in Vero cells; assay type: cell-based, herpes simplex virus 1
[2] = system: VEEV-Luc (TC-83) and VEEV (TC-83); assay: microbe, parasite or virus in culture; assay type: cell-based; settings: Venezuelan equine encephalitis virus, Vero, read-out: IC50, inhibition of VEEV
TAOK1 = TAOK1 (Homo sapiens, UniProt Q7L7X3); assay: Kinase profiling (Reaction Biology): TAOK1
BRAF = BRAF (Homo sapiens, UniProt P15056); assay: Kinase profiling (Reaction Biology): BRAF
c-Kit = c-Kit (Homo sapiens, UniProt P10721); assay: Kinase profiling (Reaction Biology): c-Kit
PAK2 = PAK2 (Homo sapiens, UniProt Q13177); assay: Kinase profiling (Reaction Biology): PAK2
CXCR4 = assay: Surface staining of CXCR4 on CEM-SS T cells; assay type: cell-based, human; settings: 100 μM, 1 h
VEEV (TrD) = assay type: cell-based, Venezuelan equine encephalitis virus; settings: Vero cells, MOI 0.1, 24 h
HIV-1(Env) = assay type: cell-based
LIMK1 = LIMK1 (Homo sapiens, UniProt P53667); assay: LIMK1 biochemical assay, 10-dose IC50; design: purified from insect cells; His; purchased Reaction Biology Corporation, Malvern, PA; host or cells: insect cells (coexpressed with ROCK1); settings: purified LIMK1; 10 μM ATP, 1 μM cofilin; ≥2 in vitro kinase assays; read-out: LIMK1 Biochemical Inhibition IC50
Excerpt: We selected R10015 from the potential LIMK inhibitors for further detailed mechanistic studies. The synthesis, purification, and biochemical characterization of R10015 are described in Materials and Methods below and shown in Fig. 3. We performed a cell-free assay to measure R10015 inhibition of the LIM domain kinase using purified human LIMK1 and its substrate, cofilin. […] We also performed profiling of R10015 against a panel of 62 kinases (Table 2).
Biochemical LIMK1 assays for all inhibitors were carried out by Reaction Biology Corporation, Malvern, PA, and followed the protocols described on its website. […] Reactions were carried out at 10 μM ATP, 1 μM substrate (cofilin), and 50 nM LIMK1 (final concentrations). […] The reagents were as follows: base reaction buffer, 20 mM HEPES (pH 7.5), 10 mM MgCl2, 1 mM EGTA, 0.02% Brij 35, 0.02 mg/ml bovine serum albumin (BSA), 0.1 mM Na3VO4, 2 mM dithiothreitol (DTT), 1% DMSO. No additional cofactors were added to the reaction mixture. The reaction procedures were as follows. (i) The indicated substrate was prepared in freshly made base reaction buffer. (ii) Any required cofactors were delivered to the substrate solution described above. (iii) The indicated kinase was delivered into the substrate solution and gently mixed. (iv) The compounds in DMSO were delivered into the kinase reaction mixture. (v) [^33P]ATP (final specific activity, 0.01 μCi/μl) was delivered into the reaction mixture to initiate the reaction. […] (viii) The filters were washed extensively in 0.1% phosphoric acid.

TESK1 = TESK1 (Homo sapiens, UniProt Q15569); assay: Kinase profiling (Reaction Biology): TESK1
TAK1 = TAK1 (Homo sapiens, UniProt O43318); assay: Kinase profiling (Reaction Biology): TAK1
Vero cells = settings: up to 100 μM R10015
LRRK2 (G2019S) = LRRK2 (G2019S) (Homo sapiens, UniProt Q5S007, G2019S); assay: Kinase profiling (Reaction Biology): LRRK2 (G2019S)
BTK = BTK (Homo sapiens, UniProt Q06187); assay: Kinase profiling (Reaction Biology): BTK
ROCK1 = ROCK1 (Homo sapiens, UniProt Q13464); assay: Kinase profiling (Reaction Biology): ROCK1
PDGFRb = PDGFRb (Homo sapiens, UniProt P09619); assay: Kinase profiling (Reaction Biology): PDGFRb
RET = RET (Homo sapiens, UniProt P07949); assay: Kinase profiling (Reaction Biology): RET
Rev-CEM-GFP-Luc cells = settings: 4 h treatment; all concentrations tested up to 200 μM
RVFV-Luc (MP12) = assay: microbe, parasite or virus in culture; assay type: cell-based; settings: Rift Valley fever virus, Vero, 24 h, read-out: IC50, inhibition of RVFV
TBK1 = TBK1 (Homo sapiens, UniProt Q9UHD2); assay: Kinase profiling (Reaction Biology): TBK1
CK1d = CK1d (Homo sapiens, UniProt P48730); assay: Kinase profiling (Reaction Biology): CK1d
p70S6K/RPS6KB1 = p70S6K/RPS6KB1 (Homo sapiens, UniProt P23443); assay: Kinase profiling (Reaction Biology): p70S6K/RPS6KB1; settings: read-out: inhibition of p70S6K
HIV-1(VSV G) = assay type: cell-based; settings: 100 μM
CAMK2b = CAMK2b (Homo sapiens, UniProt Q13554); assay: Kinase profiling (Reaction Biology): CAMK2b

LRRK2 (G2019S), sequence (Q5S007 whole entry G2019S): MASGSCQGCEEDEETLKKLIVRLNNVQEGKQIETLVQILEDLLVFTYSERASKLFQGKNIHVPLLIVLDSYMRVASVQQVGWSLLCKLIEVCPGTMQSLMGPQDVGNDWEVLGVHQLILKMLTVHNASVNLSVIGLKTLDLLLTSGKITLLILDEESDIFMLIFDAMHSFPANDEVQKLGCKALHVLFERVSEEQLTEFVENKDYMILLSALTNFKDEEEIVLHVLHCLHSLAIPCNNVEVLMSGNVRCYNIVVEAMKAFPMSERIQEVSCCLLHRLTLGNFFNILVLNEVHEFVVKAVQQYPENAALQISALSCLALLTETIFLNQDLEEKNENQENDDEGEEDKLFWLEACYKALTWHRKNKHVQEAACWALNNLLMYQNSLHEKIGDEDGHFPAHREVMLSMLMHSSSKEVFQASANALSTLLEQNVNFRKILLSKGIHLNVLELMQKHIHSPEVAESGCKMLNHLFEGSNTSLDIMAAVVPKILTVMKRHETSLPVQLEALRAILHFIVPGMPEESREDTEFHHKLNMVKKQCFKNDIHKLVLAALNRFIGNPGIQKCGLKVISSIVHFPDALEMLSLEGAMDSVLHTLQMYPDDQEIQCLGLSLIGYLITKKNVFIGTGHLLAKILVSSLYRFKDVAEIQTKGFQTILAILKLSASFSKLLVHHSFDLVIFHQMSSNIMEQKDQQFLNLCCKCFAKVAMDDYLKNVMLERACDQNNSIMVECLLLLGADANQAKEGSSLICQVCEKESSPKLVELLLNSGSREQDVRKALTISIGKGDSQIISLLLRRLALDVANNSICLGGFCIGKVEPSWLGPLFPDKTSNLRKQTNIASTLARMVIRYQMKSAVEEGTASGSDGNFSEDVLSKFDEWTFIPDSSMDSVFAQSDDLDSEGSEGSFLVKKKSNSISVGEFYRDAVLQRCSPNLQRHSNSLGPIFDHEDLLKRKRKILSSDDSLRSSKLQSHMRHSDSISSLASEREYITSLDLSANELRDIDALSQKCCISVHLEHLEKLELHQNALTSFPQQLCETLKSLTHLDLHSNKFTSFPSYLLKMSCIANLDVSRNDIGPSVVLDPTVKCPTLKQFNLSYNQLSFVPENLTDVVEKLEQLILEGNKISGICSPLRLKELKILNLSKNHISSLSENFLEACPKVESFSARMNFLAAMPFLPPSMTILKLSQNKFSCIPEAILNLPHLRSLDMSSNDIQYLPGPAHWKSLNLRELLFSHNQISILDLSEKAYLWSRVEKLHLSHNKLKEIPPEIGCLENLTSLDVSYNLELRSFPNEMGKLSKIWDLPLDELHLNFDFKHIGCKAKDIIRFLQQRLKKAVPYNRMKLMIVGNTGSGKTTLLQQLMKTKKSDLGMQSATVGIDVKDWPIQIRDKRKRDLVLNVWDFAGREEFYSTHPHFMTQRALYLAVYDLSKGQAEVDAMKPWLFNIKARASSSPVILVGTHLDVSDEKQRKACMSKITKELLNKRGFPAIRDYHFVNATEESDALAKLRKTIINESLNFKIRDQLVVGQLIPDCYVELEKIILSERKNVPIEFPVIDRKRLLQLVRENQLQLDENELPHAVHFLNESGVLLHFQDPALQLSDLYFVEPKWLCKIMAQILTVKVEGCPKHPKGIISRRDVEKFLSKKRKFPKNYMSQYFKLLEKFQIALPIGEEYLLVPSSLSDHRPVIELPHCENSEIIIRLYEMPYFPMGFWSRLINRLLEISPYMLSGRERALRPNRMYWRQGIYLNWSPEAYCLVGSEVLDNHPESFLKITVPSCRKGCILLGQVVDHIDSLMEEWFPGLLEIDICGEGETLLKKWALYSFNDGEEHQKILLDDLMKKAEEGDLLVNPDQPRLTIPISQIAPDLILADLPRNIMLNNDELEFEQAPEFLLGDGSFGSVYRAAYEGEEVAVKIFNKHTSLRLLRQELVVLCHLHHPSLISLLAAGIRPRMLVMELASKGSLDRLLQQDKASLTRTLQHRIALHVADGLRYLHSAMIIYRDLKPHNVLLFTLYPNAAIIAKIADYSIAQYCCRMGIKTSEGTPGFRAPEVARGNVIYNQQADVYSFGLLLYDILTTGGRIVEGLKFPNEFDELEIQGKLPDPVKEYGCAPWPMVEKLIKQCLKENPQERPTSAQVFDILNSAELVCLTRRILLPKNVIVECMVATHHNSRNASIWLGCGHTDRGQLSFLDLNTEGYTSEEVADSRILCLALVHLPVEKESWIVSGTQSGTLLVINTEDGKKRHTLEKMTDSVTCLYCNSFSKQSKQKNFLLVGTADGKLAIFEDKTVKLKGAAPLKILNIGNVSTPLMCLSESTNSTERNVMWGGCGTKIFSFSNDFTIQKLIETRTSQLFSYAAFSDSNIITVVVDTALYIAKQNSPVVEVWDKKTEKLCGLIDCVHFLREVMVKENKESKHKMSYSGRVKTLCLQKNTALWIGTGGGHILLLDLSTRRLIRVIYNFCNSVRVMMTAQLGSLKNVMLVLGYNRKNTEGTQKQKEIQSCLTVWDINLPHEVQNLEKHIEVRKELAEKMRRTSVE
RET, sequence (P07949 29-1114): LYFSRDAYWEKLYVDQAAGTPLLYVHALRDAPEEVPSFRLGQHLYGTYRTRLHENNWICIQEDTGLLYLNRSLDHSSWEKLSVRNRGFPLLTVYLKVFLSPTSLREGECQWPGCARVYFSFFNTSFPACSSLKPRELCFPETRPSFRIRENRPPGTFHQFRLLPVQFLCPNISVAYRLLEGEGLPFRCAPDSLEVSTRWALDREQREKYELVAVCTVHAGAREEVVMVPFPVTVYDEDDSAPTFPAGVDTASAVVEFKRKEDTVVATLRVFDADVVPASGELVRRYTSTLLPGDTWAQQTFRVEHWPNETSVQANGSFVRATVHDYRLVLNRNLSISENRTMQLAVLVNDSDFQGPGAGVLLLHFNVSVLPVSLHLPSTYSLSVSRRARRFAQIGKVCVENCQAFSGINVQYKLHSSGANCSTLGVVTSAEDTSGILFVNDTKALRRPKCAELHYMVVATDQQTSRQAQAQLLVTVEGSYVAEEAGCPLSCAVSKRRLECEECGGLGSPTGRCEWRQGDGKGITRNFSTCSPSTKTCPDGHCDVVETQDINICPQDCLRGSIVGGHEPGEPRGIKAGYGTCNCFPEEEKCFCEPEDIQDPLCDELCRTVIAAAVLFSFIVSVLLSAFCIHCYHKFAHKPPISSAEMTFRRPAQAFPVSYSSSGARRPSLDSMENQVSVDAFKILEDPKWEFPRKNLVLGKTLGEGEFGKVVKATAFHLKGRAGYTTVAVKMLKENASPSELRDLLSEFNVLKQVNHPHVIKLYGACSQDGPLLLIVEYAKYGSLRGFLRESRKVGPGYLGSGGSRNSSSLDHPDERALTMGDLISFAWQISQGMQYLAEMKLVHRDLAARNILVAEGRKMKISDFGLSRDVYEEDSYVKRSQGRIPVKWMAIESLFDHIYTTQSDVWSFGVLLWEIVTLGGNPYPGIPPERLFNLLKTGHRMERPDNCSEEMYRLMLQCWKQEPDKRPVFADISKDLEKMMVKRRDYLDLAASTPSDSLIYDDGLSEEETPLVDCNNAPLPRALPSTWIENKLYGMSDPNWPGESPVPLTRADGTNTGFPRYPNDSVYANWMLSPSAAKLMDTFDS
c-Kit, sequence (P10721 26-976): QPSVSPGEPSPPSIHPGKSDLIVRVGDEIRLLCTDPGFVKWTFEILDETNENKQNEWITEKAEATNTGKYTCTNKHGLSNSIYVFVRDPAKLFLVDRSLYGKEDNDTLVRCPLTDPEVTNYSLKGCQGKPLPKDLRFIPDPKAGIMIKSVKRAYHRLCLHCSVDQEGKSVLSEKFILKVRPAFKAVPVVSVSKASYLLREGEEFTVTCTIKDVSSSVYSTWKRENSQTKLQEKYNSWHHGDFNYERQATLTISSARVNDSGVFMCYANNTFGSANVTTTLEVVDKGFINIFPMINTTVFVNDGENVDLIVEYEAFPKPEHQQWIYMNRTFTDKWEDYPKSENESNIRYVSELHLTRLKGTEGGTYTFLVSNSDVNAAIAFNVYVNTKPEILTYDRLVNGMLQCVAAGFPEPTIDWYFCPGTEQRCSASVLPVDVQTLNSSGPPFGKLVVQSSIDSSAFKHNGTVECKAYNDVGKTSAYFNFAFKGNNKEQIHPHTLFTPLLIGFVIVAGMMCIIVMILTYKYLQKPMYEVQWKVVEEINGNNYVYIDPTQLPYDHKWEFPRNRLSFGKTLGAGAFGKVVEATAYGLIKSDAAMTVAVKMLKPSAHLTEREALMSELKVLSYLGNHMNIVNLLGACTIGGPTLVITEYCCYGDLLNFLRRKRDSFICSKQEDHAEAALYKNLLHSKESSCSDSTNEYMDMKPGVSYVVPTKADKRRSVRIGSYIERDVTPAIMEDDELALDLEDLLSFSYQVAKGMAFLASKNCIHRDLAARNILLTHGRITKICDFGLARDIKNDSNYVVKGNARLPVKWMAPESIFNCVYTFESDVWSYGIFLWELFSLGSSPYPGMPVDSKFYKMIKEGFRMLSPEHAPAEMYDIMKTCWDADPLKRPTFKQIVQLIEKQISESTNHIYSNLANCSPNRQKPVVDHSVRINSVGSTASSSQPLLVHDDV
LIMK1, sequence (P53667 285-638): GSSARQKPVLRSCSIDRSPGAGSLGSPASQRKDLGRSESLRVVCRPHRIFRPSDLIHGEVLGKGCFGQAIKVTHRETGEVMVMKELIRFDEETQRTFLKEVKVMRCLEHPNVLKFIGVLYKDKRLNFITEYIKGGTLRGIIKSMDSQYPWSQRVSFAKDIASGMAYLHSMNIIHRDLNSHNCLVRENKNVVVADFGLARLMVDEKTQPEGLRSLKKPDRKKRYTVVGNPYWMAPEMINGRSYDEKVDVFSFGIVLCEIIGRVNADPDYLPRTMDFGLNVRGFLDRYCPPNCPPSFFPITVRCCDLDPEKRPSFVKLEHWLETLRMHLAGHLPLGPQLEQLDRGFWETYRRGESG

## COC(=O)c1ccc2[nH]c(C3CCN(c4ncnc5[nH]cc(Cl)c45)CC3)nc2c1 [Compound R10015, Methyl 2-(1-(5-chloro-7H-pyrrolo[2,3-d]pyrimidin-4-yl)piperidin-4-yl)-1H-benzo[d]imidazole-5-carboxylate]
EPHA3
  activity at 1 µM: 91.1%
[1]
  virion release from HIV DNA-transfected HEK293 cells: inhibited
HSV-1
  inhibition of HSV-1 (viral plaques): inhibition
[2]
  IC50: ~5 µM
TAOK1
  activity at 1 µM: 54%
BRAF
  activity at 1 µM: 91.9%
c-Kit
  activity at 1 µM: 81.3%
PAK2
  activity at 1 µM: 98.2%
CXCR4
  surface expression of CXCR4: did not alter
VEEV (TrD)
  inhibition of VEEV (TrD): 2 log units
HIV-1(Env)
  p24 release (virion release): inhibited
LIMK1
  IC50: 38 ± 5 nM
TESK1
  activity at 1 µM: 90.2%
TAK1
  activity at 1 µM: 82.4%
Vero cells
  drug toxicity: No drug toxicity
LRRK2 (G2019S)
  activity at 1 µM: 6.7%
LRRK2 (G2019S); read-out: inhibition of LRRK2
  inhibition at 1 µM: ≥ 90%
BTK
  activity at 1 µM: 90.2%
ROCK1
  activity at 1 µM: 42.3%
PDGFRb
  activity at 1 µM: 78.6%
RET
  activity at 1 µM: 46.5%
Rev-CEM-GFP-Luc cells
  cytotoxicity: no detectable cytotoxicity
RVFV-Luc (MP12)
  IC50: ~12.5 µM
TBK1
  activity at 1 µM: 82%
CK1d
  activity at 1 µM: 85%
p70S6K/RPS6KB1
  inhibition at 1 µM: ≥ 90%
HIV-1(VSV G)
  inhibition of early steps of VSV G-pseudotyped HIV: minimally inhibited
CAMK2b
  activity at 1 µM: 90.8%
